{
  "source": "patent US20110160399A1",
  "about": "“HISTONE MODIFICATION INHIBITOR SPECIFIC TO TARGET GENE” (NIHON UNIVERSITY, priority 2008, published 2011)",
  "key": {"[1]": {"tested_on": "histone deacetylase (HDAC)", "experiment": "HDAC activity assay (HDAC Fluorimetric Assay/Drug Discovery Kit)", "format": "biochemical, human", "conditions": "HDAC-containing HeLa cell nuclear fraction, 37°C for 1 hour, various concentrations; FIG. 2", "procedure": "To verify whether the activity of histone deacetylase (HDAC) was inhibited by compounds composed of the synthesized SAHA derivatives and polyamides attached to each other, an HDAC Fluorimetric Assay/Drug Discovery Kit (BIOMOL international) was used in the experiment. Although details followed the instructions of the kit manufacturer, an HDAC-containing HeLa cell (human uterine cervical cancer cell line) nuclear fraction was added to an acetylation substrate and incubated at 37° C. for 1 hour in the presence of various concentrations of the synthesized compounds or trichostatin A (hereinafter referred to as TSA) used as a positive control, followed by addition of the developer included in the kit to stop the HDAC-catalyzed reaction. Then, the samples were transferred to a 96-well assay plate and measured with ARVO EX (Perkin Elmer) for emission at 460 nm from the reaction product upon excitation at 360 nm."}, "[2]": {"tested_on": "HeLa (human uterine cervical cancer cell line)", "experiment": "Cell proliferation assay (WST-8) on HeLa cells", "format": "cell-based", "conditions": "for suppression of HeLa cell proliferation: 72 hours, various concentrations", "procedure": "(§1) Next, the synthesized compounds were verified by WST-8 assay for their ability to suppress cancer cell proliferation.\n(§2) Cell lines of HeLa (human uterine cervical cancer cell line), LOVO, RKO and SW480 (each of which was a human large bowel cancer cell line) were each cultured at 37° C. under 5% carbon dioxide conditions using Dulbecco's modified Eagle's medium (DMEM, Nacalai Tesque, Inc., Japan) supplemented with 10% fetal bovine serum (FBS: JRH bioscience, USA), antibiotics (50 U/ml penicillin and 50 μg/ml streptomycin) and 1 mM sodium pyruvate. Single-layered cells grown to 80-90% confluency on 10 cm cell culture dishes were washed with D-PBS(−) (Nacalai Tesque, Inc., Japan) and then released from the dishes by being treated with a phenol red-containing 2.5 g/L-Trypsine/1 mmol/L EDTA solution (Nacalai Tesque, Inc., Japan). The released cells were adjusted and maintained in fresh medium.\n(§3) Each cell line seeded at 3×10^3 cells/well in a MICROTEST tissue culture plate (96 well, FALCON) was cultured at 37° C. under 5% carbon dioxide conditions for 24 hours, and then cultured in the presence of various concentrations of PI polyamide for an additional 72 hours. After completion of the culture, 10 μl of viable cell counting reagent SF (Nacalai Tesque, Inc., Japan) was added to each well and the absorbance at 450 nm was measured by ARVO EX (PerkinElmer). During the period from reagent addition until assay, incubation was continued at 37° C. in the presence of 5% CO2 until the absorbance reached about 1.2 to 2.0 in the control sample where only 50% DMSO was added to the cells."}, "[3]": {"tested_on": "RKO (human large bowel cancer cell line)", "experiment": "Cell proliferation assay (WST-8) on RKO cells", "format": "cell-based", "procedure": "as §1, §2, §3"}, "[4]": {"tested_on": "p16 gene expression (p16 RNA)", "experiment": "Real-time RT-PCR of p16 gene expression in HeLa cells", "format": "cell-based, human", "conditions": "48 hours, even at 10 nM, GAPDH internal standard, FIG. 6", "procedure": "To verify the effect on p16 gene expression, real-time RT-PCR was performed. HeLa cells seeded at 1.5×10^4 cells per well in 24-well plates were cultured for 48 hours in the presence of various concentrations of the polyamides, and RNA was then collected by ISOGEN (Nippon Gene Co., Ltd., Tokyo, Japan). The procedures used followed the manufacturer's instructions. The isolated total RNA was measured for its concentration with Nanodrop (Nanoprop, USA) and used for cDNA synthesis with a Primescript RT reagent kit (TAKARA BIO, Shiga, Japan). The prepared cDNA was confirmed for the expression level of p16 RNA in a Thermal Cycler Dice Real-time System TP-800 (TAKARA BIO, Shiga, Japan) with SYBR premix EX Tag (TAKARA BIO, Shiga, Japan). In this case, the following primers were used in PCR reaction for p16 amplification.\nLikewise, for amplification of human endogenous glyceraldehyde-3-phosphate dehydrogenase (GAPDH) used as an internal standard, the following primers were used in PCR reaction."}, "[5]": {"tested_on": "p16 protein expression", "experiment": "Western blotting of p16 protein in HeLa cells", "format": "cell-based, human", "conditions": "48 hours, various concentrations, α-tubulin internal standard, FIG. 7", "procedure": "After being cultured for 48 hours in the presence of various concentrations of polyamide, HeLa cells were harvested and lysed again in an extraction buffer containing 20 mM Tris-HCl (pH 7.5), 150 mM NaCl, 1 mM EDTA, 1% Nonidet P-40 and Complete Protease Inhibitor Cocktail Tablets (Roche), and then centrifuged at 13,500×g at 4° C. for 15 minutes. The resulting supernatants were supplemented with a sample buffer solution (2ME+, ×4) (Wako Pure Chemical Industries, Ltd., Japan) to give samples. These samples were developed on a 15% polyacrylamide gel, electrically transferred to a polyvinylidene difluoride membrane (Millipore Corporation, USA), and then blocked with 5% skimmed milk for the purpose of preventing non-specific binding. The primary antibodies used for target protein detection were purified anti-human p16INK4 monoclonal antibody (BD bioscience) for p16 and α-tubulin (TU-02) (SANTA CRUZ) for α-tubulin used as an internal standard. […] After antibody labeling, the membrane was developed with Immobilon western (MILLIPORE) and then detected by Las-4000 mini (Fuji Photo Film Co., Ltd., Japan). The area and intensity of each band were determined by Multigauge (Fuji Photo Film Co., Ltd., Japan) and quantified in comparison with a 50% DMSO-treated control, which was set to 100%."}},
  "note": "“Also recorded” adds a separate entry of the source.",
  "data": [
    {"smiles": "CN(C)CCCNC(=O)CCNC(=O)c1cc(NC(=O)c2nc(NC(=O)c3nc(NC(=O)CCNC(=O)c4cc(NC(=O)c5nc(NC(=O)CCCNC(=O)c6cc(NC(=O)c7nc(NC(=O)CCNC(=O)c8cc(NC(=O)c9cc(NC(=O)c%10nc(NC(=O)CCNC(=O)CCNC(=O)c%11ccc(NC(=O)CCCCCCC(=O)NO)cc%11)cn%10C)cn9C)cn8C)cn7C)cn6C)cn5C)cn4C)cn3C)cn2C)cn1C", "note": "[SAHA+p16 PIP, SAHA-ββImPyPyβImPyγImPyβImImPyβDp]", "values": [
      {"measurement": "anti-HDAC activity", "setting": "[1]", "result": "confirmed to have anti-HDAC activity"},
      {"measurement": "suppression of HeLa cell proliferation", "setting": "[2]; WST-8, FIG. 3, FIG. 4", "result": "high antitumor effect"},
      {"measurement": "suppression of HeLa cell proliferation", "setting": "[2]; WST-8, FIG. 3, FIG. 4, listed as p16 PIP attached to the SAHA derivative", "result": "proliferation inhibition; also recorded: inhibit proliferation"},
      {"measurement": "ability to suppress proliferation, compared among the 4 cancer cell lines (HeLa)", "setting": "[2]; FIG. 4", "result": "high"},
      {"measurement": "suppression of RKO cell proliferation at 100 nM", "setting": "[3]; 100 nM, 72 hours, FIG. 4", "result": "not suppressed"},
      {"measurement": "inhibition of RKO cell proliferation", "setting": "[3]; 72 hours, WST-8, FIG. 4", "result": "inhibit proliferation"},
      {"measurement": "ability to suppress proliferation, compared among the 4 cancer cell lines (RKO)", "setting": "[3]; FIG. 4, listed as p16 PIP attached to the SAHA derivative", "result": "high and lowest"},
      {"measurement": "expression level of p16 at the transcription level", "setting": "[4]", "result": "significant increase"},
      {"measurement": "expression of p16 at the protein level", "setting": "[5]", "result": "enhanced the expression"}
    ]}
  ]
}
